pEC50: −log10 of the molar value.
Molecular target: T1, human apelin receptor (Homo sapiens, UniProt P35414)
T1 construct: expressed in transfected cells
T1 sequence (P35414 1-380): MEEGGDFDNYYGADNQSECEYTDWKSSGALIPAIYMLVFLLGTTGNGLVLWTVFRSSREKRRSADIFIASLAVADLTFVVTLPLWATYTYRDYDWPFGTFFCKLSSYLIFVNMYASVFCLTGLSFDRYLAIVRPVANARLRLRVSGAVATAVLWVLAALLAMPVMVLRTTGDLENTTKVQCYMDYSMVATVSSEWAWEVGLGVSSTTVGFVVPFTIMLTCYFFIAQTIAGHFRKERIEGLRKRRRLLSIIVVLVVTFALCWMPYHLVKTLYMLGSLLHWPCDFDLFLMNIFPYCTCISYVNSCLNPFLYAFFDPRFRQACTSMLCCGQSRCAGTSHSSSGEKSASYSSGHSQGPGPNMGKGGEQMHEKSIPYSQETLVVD
Test: Determination of agonism on the human apelin receptor by a calcium fluorescence assay (FLIPR)
Assay type: cell-based
Details: HEK293 cells stably transfected with human apelin receptor and Giaq protein, Fluo-4 calcium fluorescence, read-out: EC50 (APJ agonism)
How it was run: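 Agonist EC50s come from peak intracellular calcium transients recorded by FLIPR Tetra, scaled to the 1 μM apelin-13 maximum per plate. Test system: HEK293 stably transfected with human apelin receptor plus Giaq, Fluo-4-loaded (4 μM, 1 h, 37 °C, pH 7.4 buffer with probenecid); ≥7 concentrations, triplicates.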

**Q.** `CCC(CC)n1c(Cc2cccs2)nc2cc(C(=O)N[C@@H](CC(C)C)C(=O)NCC3CCN(C(C)c4ccccc4)C3)ccc21` (stereo partly drawn) [Example 353, 1-(1-Ethyl-propyl)-2-thiophen-2-ylmethyl-1H-benzoimidazole-5-carboxylic acid ((S)-3-methyl-1-{[1-(1-phenyl-ethyl)-pyrrolidin-3-ylmethyl]-carbamoyl}-butyl)-amide] was tested. Which pEC50 did it give?
**A.** Its pEC50 is 6.10.

**Q.** `CCCC1CCN(CCCNC(=O)[C@H](CC(C)C)NC(=O)c2ccc3c(c2)nc(Cc2cccs2)n3C(CC)CC)CC1` [Example 354, 1-(1-Ethyl-propyl)-2-thiophen-2-ylmethyl-1H-benzoimidazole-5-carboxylic acid {(S)-3-methyl-1-[3-(4-propyl-piperidin-1-yl)-propylcarbamoyl]-butyl}-amide] was tested. Which pEC50 did it give?
**A.** Its pEC50 is 6.00.

**Q.** How did the pEC50 turn out when `CCC(CC)n1c(Cc2cccs2)nc2cc(C(=O)N[C@@H](CC(C)C)C(=O)NCC3CN(CC(C)C)CCO3)ccc21` (stereo partly drawn) [Example 355, 1-(1-Ethyl-propyl)-2-thiophen-2-ylmethyl-1H-benzoimidazole-5-carboxylic acid {(S)-1-[(4-isobutyl-morpholin-2-ylmethyl)-carbamoyl]-3-methyl-butyl}-amide] was run?
**A.** Its pEC50 is 5.82.

**Q.** `CCC(CC)n1c(Cc2cccs2)nc2cc(C(=O)N[C@@H](CC(C)C)C(=O)NCC3CN(Cc4ccc(F)cc4)CCO3)ccc21` (stereo partly drawn) [Example 356, 1-(1-Ethyl-propyl)-2-thiophen-2-ylmethyl-1H-benzoimidazole-5-carboxylic acid ((S)-1-{[4-(4-fluoro-benzyl)-morpholin-2-ylmethyl]-carbamoyl}-3-methyl-butyl)-amide] was tested. Which pEC50 did it give?
**A.** The pEC50 was 5.37.

**Q.** How did the pEC50 turn out when `CCC(CC)n1c(Cc2cccs2)nc2cc(C(=O)N[C@@H](CC(C)C)C(=O)N(C)C)ccc21` [Example 357, 1-(1-Ethyl-propyl)-2-thiophen-2-ylmethyl-1H-benzoimidazole-5-carboxylic acid ((S)-1-dimethyl-carbamoyl-3-methyl-butyl)-amide] was run?
**A.** The pEC50 was 6.41.

**Q.** `CCC(CC)n1c(Cc2cccs2)nc2cc(C(=O)N[C@@H](CC(C)C)C(=O)NCCCOC(C)C)ccc21` [Example 358, 1-(1-Ethyl-propyl)-2-thiophen-2-ylmethyl-1H-benzoimidazole-5-carboxylic acid [(S)-1-(3-isopropoxy-propylcarbamoyl)-3-methyl-butyl]-amide] was tested. Which pEC50 did it give?
**A.** Its pEC50 is 5.59.

**Q.** `CCOCCCNC(=O)[C@H](CC(C)C)NC(=O)c1ccc2c(c1)nc(Cc1cccs1)n2C(CC)CC` [Example 359, 1-(1-Ethyl-propyl)-2-thiophen-2-ylmethyl-1H-benzoimidazole-5-carboxylic acid [(S)-1-(3-ethoxy-propylcarbamoyl)-3-methyl-butyl]-amide] was tested. Which pEC50 did it give?
**A.** Its pEC50 is 5.67.

**Q.** `CCC(CC)n1c(Cc2cccs2)nc2cc(C(=O)N[C@@H](CC(C)C)C(=O)NCCc3cccc(OC)c3)ccc21` [Example 360, 1-(1-Ethyl-propyl)-2-thiophen-2-ylmethyl-1H-benzoimidazole-5-carboxylic acid {(S)-1-[2-(3-methoxy-phenyl)-ethylcarbamoyl]-3-methyl-butyl}-amide] was tested. Which pEC50 did it give?
**A.** Its pEC50 is 4.67.

**Q.** How did the pEC50 turn out when `CCC(CC)n1c(Cc2cccs2)nc2cc(C(=O)N[C@@H](CC(C)C)C(=O)NCCc3ccc(OC)cc3)ccc21` [Example 361, 1-(1-Ethyl-propyl)-2-thiophen-2-ylmethyl-1H-benzoimidazole-5-carboxylic acid {(S)-1-[2-(4-methoxy-phenyl)-ethylcarbamoyl]-3-methyl-butyl}-amide] was run?
**A.** Its pEC50 is 4.60.

**Q.** With `CCC(CC)n1c(Cc2cccs2)nc2cc(C(=O)N[C@@H](CC(C)C)C(=O)NCCc3ccccc3OC)ccc21` [Example 362, 1-(1-Ethyl-propyl)-2-thiophen-2-ylmethyl-1H-benzoimidazole-5-carboxylic acid {(S)-1-[2-(2-methoxy-phenyl)-ethylcarbamoyl]-3-methyl-butyl}-amide] as the compound, how does the pEC50 read?
**A.** The pEC50 was 4.57.

**Q.** `CCC(CC)n1c(Cc2cccs2)nc2cc(C(=O)N[C@@H](CC(C)C)C(=O)N(CCOC)CCOC)ccc21` [Example 363, 1-(1-Ethyl-propyl)-2-thiophen-2-ylmethyl-1H-benzoimidazole-5-carboxylic acid {(S)-1-[bis-(2-methoxy-ethyl)-carbamoyl]-3-methyl-butyl}-amide] was tested. Which pEC50 did it give?
**A.** The pEC50 was 5.77.

**Q.** With `CCC(CC)n1c(Cc2cccs2)nc2cc(C(=O)N[C@@H](CC(C)C)C(=O)NCc3cccc(OC)c3)ccc21` [Example 364, 1-(1-Ethyl-propyl)-2-thiophen-2-ylmethyl-1H-benzoimidazole-5-carboxylic acid [(S)-1-(3-methoxy-benzylcarbamoyl)-3-methyl-butyl]-amide] as the compound, how does the pEC50 read?
**A.** Its pEC50 is 4.87.

**Q.** `CCC(CC)n1c(Cc2cccs2)nc2cc(C(=O)N[C@@H](CC(C)C)C(=O)N3CCC[C@@H]3COC)ccc21` [Example 365, 1-(1-Ethyl-propyl)-2-thiophen-2-ylmethyl-1H-benzoimidazole-5-carboxylic acid [(S)-1-((R)-2-methoxymethyl-pyrrolidine-1-carbonyl)-3-methyl-butyl]-amide] was tested. Which pEC50 did it give?
**A.** The pEC50 was 5.56.

**Q.** With `CCC(CC)n1c(Cc2cccs2)nc2cc(C(=O)N[C@@H](CC(C)C)C(=O)NCCOc3ccccc3)ccc21` [Example 366, 1-(1-Ethyl-propyl)-2-thiophen-2-ylmethyl-1H-benzoimidazole-5-carboxylic acid [(S)-3-methyl-1-(2-phenoxy-ethylcarbamoyl)-butyl]-amide] as the compound, how does the pEC50 read?
**A.** The pEC50 was 4.78.

**Q.** With `CCC(CC)n1c(Cc2cccs2)nc2cc(C(=O)N[C@@H](CC(C)C)C(=O)NC[C@H]3CCCO3)ccc21` [Example 367, 1-(1-Ethyl-propyl)-2-thiophen-2-ylmethyl-1H-benzoimidazole-5-carboxylic acid ((S)-3-methyl-1-{[(R)-1-(tetrahydro-furan-2-yl)methyl]-carbamoyl}-butyl)-amide] as the compound, how does the pEC50 read?
**A.** The pEC50 was 5.78.

**Q.** How did the pEC50 turn out when `CCC(CC)n1c(Cc2cccs2)nc2cc(C(=O)N[C@@H](CC(C)C)C(=O)NC[C@@H]3CCCO3)ccc21` [Example 368, 1-(1-Ethyl-propyl)-2-thiophen-2-ylmethyl-1H-benzoimidazole-5-carboxylic acid ((S)-3-methyl-1-{[(S)-1-(tetrahydro-furan-2-yl)methyl]-carbamoyl}-butyl)-amide] was run?
**A.** Its pEC50 is 5.73.

**Q.** How did the pEC50 turn out when `CCC(CC)n1c(Cc2cccs2)nc2cc(C(=O)N[C@@H](CC(C)C)C(=O)NCC3CCOCC3)ccc21` [Example 369, 1-(1-Ethyl-propyl)-2-thiophen-2-ylmethyl-1H-benzoimidazole-5-carboxylic acid {(S)-3-methyl-1-[(tetrahydro-pyran-4-ylmethyl)-carbamoyl]-butyl}-amide] was run?
**A.** Its pEC50 is 5.66.

**Q.** With `CCC(CC)n1c(Cc2cccs2)nc2cc(C(=O)N[C@@H](CC(C)C)C(=O)N[C@@H](C)COC)ccc21` [Example 370, 1-(1-Ethyl-propyl)-2-thiophen-2-ylmethyl-1H-benzoimidazole-5-carboxylic acid [(S)-1-((S)-2-methoxy-1-methyl-ethylcarbamoyl)-3-methyl-butyl]-amide] as the compound, how does the pEC50 read?
**A.** Its pEC50 is 5.54.

**Q.** With `CCC(CC)n1c(Cc2cccs2)nc2cc(C(=O)N[C@@H](CC(C)C)C(=O)NCCOC(C)C)ccc21` [Example 371, 1-(1-Ethyl-propyl)-2-thiophen-2-ylmethyl-1H-benzoimidazole-5-carboxylic acid [(S)-1-(2-isopropoxy-ethylcarbamoyl)-3-methyl-butyl]-amide] as the compound, how does the pEC50 read?
**A.** Its pEC50 is 5.45.

**Q.** With `CCC(CC)n1c(Cc2cccs2)nc2cc(C(=O)N[C@@H](CC(C)C)C(=O)N(C)Cc3ccc(OC)cc3)ccc21` [Example 372, 1-(1-Ethyl-propyl)-2-thiophen-2-ylmethyl-1H-benzoimidazole-5-carboxylic acid {(S)-1-[(4-methoxy-benzyl)-methyl-carbamoyl]-3-methyl-butyl}-amide] as the compound, how does the pEC50 read?
**A.** Its pEC50 is 4.88.

— patent publication US9156796B2, “Benzoimidazole-carboxylic acid amide derivatives as APJ receptor modulators” (SANOFI, priority 2013, dated 2015)
